Test results reported in PubChem BioAssay AID874 (The Scripps Research Institute Molecular Screening Center, 2007).
Calls of active or inactive are those of the source. The rule behind the calls is not given here.

Test system: CRE-BLA reporter cells, beta-lactamase FRET, counterscreen
Assay: activators of CRE-BLA reporter, SAR follow-up, counter-screen for S1P2 agonist project, cell-based, purchased analogues, beta-lactamase FRET (AID 874)

Row | Compound | EC50
1 | Cc1cc(C(=O)CN2C(=O)C(=O)N(Cc3ccccc3)C2=O)c(C)n1Cc1ccc(F)cc1 | > 44 µM (inactive)
2 | Cc1sc2ncn(CC(=O)c3cc(C)n(Cc4ccccc4)c3C)c(=O)c2c1C | > 44 µM (inactive)
3 | Cc1cc(C(=O)Cn2cc(C(F)(F)F)ccc2=O)c(C)n1Cc1ccccc1 | > 44 µM (inactive)
4 | Cc1cc(C(=O)CN(C)CC(=O)NC(C)(C)C)c(C)n1Cc1ccccc1 | > 44 µM (inactive)
5 | Cc1cc(C(=O)CN2C(=O)NC(Cc3ccccc3)C2=O)c(C)n1Cc1cccs1 (centres undefined) | > 44 µM (inactive)
6 | Cc1cc(C(=O)CN2C(=O)NC(Cc3ccccc3)C2=O)c(C)n1Cc1ccccc1 (centres undefined) | > 44 µM (inactive)
7 | Cc1ccc(C(=O)OCC(=O)c2cc(C)n(Cc3ccccc3)c2C)o1 | > 44 µM (inactive)
8 | Cc1cc(C(=O)COC(=O)Cn2cnc3ccccc3c2=O)c(C)n1Cc1ccccc1 | > 44 µM (inactive)
9 | Cc1nc(C)c(C(=O)OCC(=O)c2cc(C)n(Cc3ccccc3)c2C)s1 | > 44 µM (inactive)
10 | Cc1cc(C(=O)CSc2ncn[nH]2)c(C)n1Cc1ccccc1 | > 44 µM (inactive)
11 | Cc1cc(C(=O)CN(C)CC(=O)N(C)C)c(C)n1Cc1ccccc1 | > 44 µM (inactive)
12 | COc1cccc(C2(C)NC(=O)N(CC(=O)c3cc(C)n(Cc4ccccc4)c3C)C2=O)c1 (centres undefined) | > 44 µM (inactive)
13 | Cc1cc(C(=O)CSc2ncccn2)c(C)n1Cc1ccccc1 | > 44 µM (inactive)
14 | Cc1cc(C(=O)Cn2cnc3c2c(=O)n(C)c(=O)n3C)c(C)n1Cc1ccccc1 | > 44 µM (inactive)
15 | Cc1cc(C(=O)Cn2cnc3c(oc4ccccc43)c2=O)c(C)n1Cc1ccccc1 | > 44 µM (inactive)
16 | Cc1cc(C(=O)CN2C(=O)NC3(CCc4ccccc43)C2=O)c(C)n1Cc1ccccc1 (centres undefined) | > 44 µM (inactive)
17 | Cc1cc(C(=O)CN2C(=O)C(=O)N(C3CCCC3)C2=O)c(C)n1Cc1ccccc1 | > 44 µM (inactive)
18 | Cc1cc(C(=O)CN(C)CC(=O)NC(C)C)c(C)n1Cc1ccccc1 | > 44 µM (inactive)
19 | COCCNC(=O)CN(C)CC(=O)c1cc(C)n(Cc2ccccc2)c1C | > 44 µM (inactive)
20 | CNC(=O)c1ccc(CN(C)CC(=O)c2cc(C)n(Cc3ccccc3)c2C)cc1 | > 44 µM (inactive)

Row | Compound | EC50
21 | Cc1cc(C(=O)COc2ccc(C(N)=O)cc2)c(C)n1Cc1ccccc1 | > 44 µM (inactive)
22 | CC(=O)Nc1ccc(OCC(=O)c2cc(C)n(Cc3ccccc3)c2C)cc1 | > 44 µM (inactive)
23 | Cc1cc(C(=O)CN(C)CC(=O)NC2CC2)c(C)n1Cc1ccccc1 | > 44 µM (inactive)
24 | Cc1cc(C)nc(SCC(=O)OCC(=O)c2cc(C)n(Cc3ccccc3)c2C)n1 | > 44 µM (inactive)
25 | Cc1noc(C)c1C(=O)OCC(=O)c1cc(C)n(Cc2ccccc2)c1C | > 44 µM (inactive)
26 | Cc1cc(C(=O)COC(=O)c2ccco2)c(C)n1Cc1ccccc1 | > 44 µM (inactive)
27 | CCC1(CC)NC(=O)N(CC(=O)OCC(=O)c2cc(C)n(Cc3ccccc3)c2C)C1=O | > 44 µM (inactive)
28 | Cc1nn(CC(=O)c2cc(C)n(Cc3ccccc3)c2C)c(C)c1[N+](=O)[O-] | > 44 µM (inactive)
29 | CC(=O)c1ccc(OCC(=O)c2cc(C)n(Cc3ccccc3)c2C)cc1 | > 44 µM (inactive)
30 | CCCNC(=O)CN(C)CC(=O)c1cc(C)n(Cc2ccccc2)c1C | > 44 µM (inactive)
31 | Cc1cc(C(=O)CN2C(=O)CCC2=O)c(C)n1Cc1ccccc1 | > 44 µM (inactive)
32 | Cc1cc(C(=O)CN2CCN(C(=O)c3ccco3)CC2)c(C)n1Cc1ccccc1 | > 44 µM (inactive)
33 | Cc1cc(C(=O)CN2C(=O)C(=O)N(C)C2=O)c(C)n1Cc1ccccc1 | > 44 µM (inactive)
34 | CCNC(=O)CN(CC)CC(=O)c1cc(C)n(Cc2ccccc2)c1C | > 44 µM (inactive)
35 | Cc1cc(C(=O)CSc2nnnn2C(C)(C)C)c(C)n1Cc1ccccc1 | > 44 µM (inactive)
36 | Cc1cc(C(=O)COC(=O)C2CSC3(C)CCC(=O)N23)c(C)n1Cc1ccccc1 (centres undefined) | > 44 µM (inactive)
37 | Cc1cc(C(=O)COC(=O)C2CCC2)c(C)n1Cc1ccccc1 | > 44 µM (inactive)
38 | Cc1cc(C(=O)O)c(C)n1Cc1ccccc1 | > 44 µM (inactive)
39 | Cc1cc(C(=O)CN2C(=O)C(=O)N(Cc3ccccc3)C2=O)c(C)n1Cc1ccco1 | > 44 µM (inactive)
40 | Cc1cc(C(=O)CN(C)Cc2ccco2)c(C)n1Cc1ccccc1 | > 44 µM (inactive)

Row | Compound | EC50
41 | Cc1cc(C(=O)COC(=O)Cn2c(=O)oc3ccccc32)c(C)n1Cc1ccccc1 | > 44 µM (inactive)
42 | Cc1cc(C(=O)CSc2nnnn2C)c(C)n1Cc1ccccc1 | > 44 µM (inactive)
43 | Cc1cc(C(=O)COC(=O)CCS(=O)(=O)c2ccccc2)c(C)n1Cc1ccccc1 | > 44 µM (inactive)
44 | CC(=O)Nc1ccc(SCC(=O)c2cc(C)n(Cc3ccccc3)c2C)cc1 | > 44 µM (inactive)
45 | Cc1cc(C(=O)CN2C(=O)C(=O)N(Cc3ccccc3)C2=O)c(C)n1Cc1ccccc1 | > 44 µM (inactive)
46 | Cc1cc(C(=O)COC(=O)C(O)c2ccccc2)c(C)n1Cc1ccccc1 (centres undefined) | > 44 µM (inactive)
47 | Cc1cc(C(=O)COC(=O)CN2C(=O)C3CCCCC3C2=O)c(C)n1Cc1ccccc1 (centres undefined) | > 44 µM (inactive)
48 | COc1ccc(C(N)=O)c(OCC(=O)c2cc(C)n(Cc3ccccc3)c2C)c1 | > 44 µM (inactive)
49 | Cc1cc(C(=O)CSc2nnnn2C2CC2)c(C)n1Cc1ccccc1 | > 44 µM (inactive)
50 | Cc1cc(C(=O)CN2C(=O)CCC2=O)c(C)n1Cc1ccc2c(c1)OCO2 | > 44 µM (inactive)
51 | CC(=O)c1cccc(OCC(=O)c2cc(C)n(Cc3ccccc3)c2C)c1 | > 44 µM (inactive)
52 | Cc1cc(C(=O)CN2C(=O)C(=O)N(Cc3ccco3)C2=O)c(C)n1Cc1ccccc1 | > 44 µM (inactive)
53 | Cc1cc(C(=O)CSc2nnc(C3CC3)n2C)c(C)n1Cc1ccccc1 | > 44 µM (inactive)
54 | COc1ccc(NC(=O)CN(C)CC(=O)c2cc(C)n(Cc3ccccc3)c2C)cc1 | > 44 µM (inactive)
55 | CCOC(=O)c1cc(C)n(Cc2ccccc2)c1C | > 44 µM (inactive)
56 | Cc1cc(C(=O)CN2C(=O)NC3(CCOc4ccccc43)C2=O)c(C)n1Cc1ccccc1 (centres undefined) | > 44 µM (inactive)
57 | Cc1cc(C(=O)COC(=O)CN2C(=O)NC(C)(C)C2=O)c(C)n1Cc1ccccc1 | > 44 µM (inactive)
58 | Cc1cc(C(=O)CN(C)CC(=O)N2CCOCC2)c(C)n1Cc1ccccc1 | > 44 µM (inactive)
59 | Cc1cc(C(=O)CN(C)CC(=O)N2CCCC2)c(C)n1Cc1ccccc1 | > 44 µM (inactive)
